The source made the active and inactive calls. No cut-off for these calls is given here.
How the values were obtained:
Type in all cases: functional, cell-based
HeLa [1] = assay: Antiproliferative activity against human HeLa cells after 72 hrs by MTT assay
A549 = assay: Antiproliferative activity against human A549 cells after 72 hrs by MTT assay
HT-29 [2] = assay: Antiproliferative activity against human HT-29 cells after 72 hrs by MTT assay
MDA-MB-231 = assay: Antiproliferative activity against human MDA-MB-231 cells after 72 hrs by MTT assay
SK-BR-3 = assay: Antiproliferative activity against human SKBR3 cells after 72 hrs by MTT assay
CAL-27 = assay: Antiproliferative activity against human CAL27 cells after 72 hrs by MTT assay
HT-29 [3] = assay: Antiproliferative activity against human HT-29 cells after 24 hrs by MTT assay
HeLa [4] = assay: Antiproliferative activity against human HeLa cells after 24 hrs by MTT assay

For `O=C1N[C@@H](Cc2c(-c3ccc(C(F)(F)F)cc3)[nH]c3ccccc23)C(=O)N2CCC[C@@H]12`, the IC50 (HeLa [1]) was 26 µM, the Activity (A549) was “Active” and the Activity (HT-29 [2]) was “Active”. For the same molecule, the Activity (MDA-MB-231) was “Active”, the Activity (SK-BR-3) was “Active” and the Activity (CAL-27) was “Active”.
For `O=C1N[C@@H](Cc2c(-c3ccc(Cl)cc3)[nH]c3ccccc23)C(=O)N2CCC[C@@H]12`, the IC50 (HeLa [1]) was 52 µM, the Activity (A549) was “Active” and the Activity (HT-29 [2]) was “Active”. The Activity (SK-BR-3) was “Active”.
For `O=C1N[C@@H](Cc2c[nH]c3ccccc23)C(=O)N2CCC[C@@H]12` [BREVIANAMIDE F], the IC50 (HeLa [1]) was > 200 µM.
For `COc1ccccc1-c1[nH]c2ccccc2c1C[C@@H]1NC(=O)[C@@H]2CCCN2C1=O`, the Activity (HT-29 [3]) was “Active” and the Activity (HeLa [4]) was “Active”.
In the case of `O=C1N[C@@H](Cc2c(-c3ccccc3C(F)(F)F)[nH]c3ccccc23)C(=O)N2CCC[C@@H]12`, the Activity (HT-29 [3]) is reported as “Active” and the Activity (HeLa [4]) is reported as “Active”.
In the case of `O=C1N[C@H](Cc2c(-c3ccc(C(F)(F)F)cc3)[nH]c3ccccc23)C(=O)N2CCC[C@H]12`, the Activity (A549) is reported as “Active”, the Activity (MDA-MB-231) is reported as “Active” and the Activity (CAL-27) is reported as “Active”.
`O=C1N[C@@H](Cc2c(-c3cc(C(F)(F)F)cc(C(F)(F)F)c3)[nH]c3ccccc23)C(=O)N2CCC[C@@H]12` was tested, and the Activity (HT-29 [3]) was “Active”.
`COc1ccc(-c2[nH]c3ccccc3c2C[C@@H]2NC(=O)[C@@H]3CCCN3C2=O)cc1` was tested, and the Activity (A549) was “Active”, the Activity (HT-29 [2]) was “Active” and the Activity (SK-BR-3) was “Active”.
For `O=C1N[C@@H](Cc2c(-c3ccccc3Cl)[nH]c3ccccc23)C(=O)N2CCC[C@@H]12`, the Activity (HT-29 [3]) was “Active” and the Activity (HeLa [4]) was “Active”.
In the case of `COC(=O)c1ccc(-c2[nH]c3ccccc3c2C[C@@H]2NC(=O)[C@@H]3CCCN3C2=O)cc1`, the Activity (A549) is reported as “Active”, the Activity (HT-29 [2]) is reported as “Active” and the Activity (SK-BR-3) is reported as “Active”.
`Cc1ccc(-c2[nH]c3ccccc3c2C[C@@H]2NC(=O)[C@@H]3CCCN3C2=O)cc1` was tested, and the Activity (A549) was “Active”, the Activity (HT-29 [2]) was “Active” and the Activity (SK-BR-3) was “Active”.
